Results as given in patent US9499550B2 (BRISTOL-MYERS SQUIBB COMPANY, priority 2012, dated 2016).

Tests used:
[1] = test system: HCV genotype 1a (H77 strain) replicon in HUH-7 cells; test: HCV replicon luciferase reporter assay, genotype 1a; format: cell-based; conditions: Hepatitis C virus, Huh-7, 72 h, HCV genotype 1a replicon luciferase, 3 days incubation, read-out: LE_1a (EC50, range)
In short: (§1)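 Replicon inhibition for both genotypes was measured as Renilla luciferase signal (EnduRen, 7.5 μM final, 2 h) after 3-day, 37° C exposure of replicon-bearing HUH-7 cells in 4% FCS DMEM, 0.5% DMSO. The 1b construct carries S1179I; the 1a H77 construct carries P1496L and S2204I. Twenty-point, 3-fold dilutions were fitted four-parametrically for EC50, and CC50 was taken from multiplexed Cell Titer-Blue.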

[2] = test system: HCV genotype 1b (Con1) replicon in HUH-7 cells; test: HCV replicon luciferase reporter assay, genotype 1b; format: cell-based; conditions: Hepatitis C virus, Huh-7, 72 h, HCV genotype 1b replicon luciferase, 3 days incubation, read-out: LE_1b (EC50, range)
In short: as §1

| Compound | EC50 [1] [nM] | EC50 [2] [nM] |
| --- | --- | --- |
| [2H]C([2H])([2H])C(OC(=O)N[C@@H]1C(=O)N2C[C@H](Oc3nccc4cc(OCCC)ccc34)C[C@H]2C(=O)N[C@]2(C(=O)NS(=O)(=O)C3CC3)C[C@H]2/C=C\CC[C@H](C)C[C@H]1C)(C([2H])([2H])[2H])C(F)(F)F [Compound 5172] | 4.82 to 103 | < 5.46 |
| [2H]C([2H])([2H])C(OC(=O)N[C@@H]1C(=O)N2C[C@H](Oc3nccc4cc(OCCC)ccc34)C[C@H]2C(=O)N[C@]2(C(=O)NS(=O)(=O)C3CC3)C[C@H]2/C=C\CC[C@@H](C)C[C@H]1C)(C([2H])([2H])[2H])C(F)(F)F [Compound 5173] | < 5.46 | < 5.46 |
| [2H]C([2H])([2H])C(OC(=O)N[C@@H]1C(=O)N2C[C@H](Oc3nccc4cc(OC)ccc34)CC2C(=O)N[C@]2(C(=O)NS(=O)(=O)C3(C)CC3)C[C@H]2/C=C\CC[C@H](C)C[C@H]1C)(C([2H])([2H])[2H])C(F)(F)F (stereo partly drawn) [Compound 5174, 1,1,1,3,3,3-hexadeutero-2-(trifluoromethyl)propan-2-yl((2R,6S,7R,9S,13aS,14aR,16aS,Z)-2-((6-methoxyisoquinolin-1-yl)oxy)-7,9-dimethyl-14a-(((1-methylcyclopropyl)sulfonyl)carbamoyl)-5,16-dioxo-1,2,3,5,6,7,8,9,10,11,13a,14,14a,15,16,16a-hexadecahydrocyclopropa[e]pyrrolo[1,2-a][1,4]diazacyclopentadecin-6-yl)carbamate] | < 5.46 | < 5.46 |
| [2H]C([2H])([2H])C(OC(=O)N[C@@H]1C(=O)N2C[C@H](Oc3nccc4cc(OC)ccc34)CC2C(=O)N[C@]2(C(=O)NS(=O)(=O)C3(C)CC3)C[C@H]2/C=C\CC[C@@H](C)C[C@H]1C)(C([2H])([2H])[2H])C(F)(F)F (stereo partly drawn) [Compound 5175, 1,1,1,3,3,3-hexadeutero-2-(trifluoromethyl)propan-2-yl((2R,6S,7R,9R,13aS,14aR,16aS,Z)-2-((6-methoxyisoquinolin-1-yl)oxy)-7,9-dimethyl-14a-(((1-methylcyclopropyl)sulfonyl)carbamoyl)-5,16-dioxo-1,2,3,5,6,7,8,9,10,11,13a,14,14a,15,16,16a-hexadecahydrocyclopropa[e]pyrrolo[1,2-a][1,4]diazacyclopentadecin-6-yl)carbamate] | < 5.46 | < 5.46 |
| [2H]C([2H])([2H])C(C)(OC(=O)N[C@@H]1C(=O)N2C[C@H](Oc3nccc4cc(OC)ccc34)CC2C(=O)N[C@]2(C(=O)NS(=O)(=O)C3(C)CC3)C[C@H]2/C=C\CC[C@H](C)C[C@H]1C)C([2H])([2H])[2H] (stereo partly drawn) [Compound 5176, 1,1,1,3,3,3-hexadeutero-2-methylpropan-2-yl((2R,6S,7R,9S,13aS,14aR,16aS,Z)-2-((6-methoxyisoquinolin-1-yl)oxy)-7,9-dimethyl-14a-(((1-methylcyclopropyl)sulfonyl)carbamoyl)-5,16-dioxo-1,2,3,5,6,7,8,9,10,11,13a,14,14a,15,16,16a-hexadecahydrocyclopropa[e]pyrrolo[1,2-a][1,4]diazacyclopentadecin-6-yl)carbamate] | 4.82 to 103 | < 5.46 |
| [2H]C([2H])([2H])C(C)(OC(=O)N[C@@H]1C(=O)N2C[C@H](Oc3nccc4cc(OC)ccc34)CC2C(=O)N[C@]2(C(=O)NS(=O)(=O)C3(C)CC3)C[C@H]2/C=C\CC[C@@H](C)C[C@H]1C)C([2H])([2H])[2H] (stereo partly drawn) [Compound 5177, 1,1,1,3,3,3-hexadeutero-2-methylpropan-2-yl((2R,6S,7R,9R,13aS,14aR,16aS,Z)-2-((6-methoxyisoquinolin-1-yl)oxy)-7,9-dimethyl-14a-(((1-methylcyclopropyl)sulfonyl)carbamoyl)-5,16-dioxo-1,2,3,5,6,7,8,9,10,11,13a,14,14a,15,16,16a-hexadecahydrocyclopropa[e]pyrrolo[1,2-a][1,4]diazacyclopentadecin-6-yl)carbamate] | < 5.46 | < 5.46 |
| COc1ccc2c(O[C@@H]3C[C@H]4C(=O)N[C@]5(C(=O)NS(=O)(=O)C6(C)CC6)C[C@H]5/C=C\CC[C@H](C)C[C@@H](C)[C@H](NC(=O)NC(C)(C)C)C(=O)N4C3)nccc2c1 [Compound 5178, (2R,6S,7R,9S,13aS,14aR,16aS,Z)-6-(3-(tert-butyl)ureido)-2-((6-methoxyisoquinolin-1-yl)oxy)-7,9-dimethyl-N-((1-methylcyclopropyl)sulfonyl)-5,16-dioxo-1,2,3,5,6,7,8,9,10,11,13a,14,14a,15,16,16a-hexadecahydrocyclopropa[e]pyrrolo[1,2-a][1,4]diazacyclopentadecine-14a-carboxamide] | 4.82 to 103 | < 5.46 |
| COc1ccc2c(O[C@@H]3C[C@H]4C(=O)N[C@]5(C(=O)NS(=O)(=O)C6(C)CC6)C[C@H]5/C=C\CC[C@@H](C)C[C@@H](C)[C@H](NC(=O)NC(C)(C)C)C(=O)N4C3)nccc2c1 [Compound 5179, (2R,6S,7R,9R,13aS,14aR,16aS,Z)-6-(3-(tert-butyl)ureido)-2-((6-methoxyisoquinolin-1-yl)oxy)-7,9-dimethyl-N-((1-methylcyclopropyl)sulfonyl)-5,16-dioxo-1,2,3,5,6,7,8,9,10,11,13a,14,14a,15,16,16a-hexadecahydrocyclopropa[e]pyrrolo[1,2-a][1,4]diazacyclopentadecine-14a-carboxamide] | < 5.46 | < 5.46 |
| COc1ccc2c(O[C@@H]3C[C@H]4C(=O)N[C@]5(C(=O)NS(=O)(=O)C6(C)CC6)C[C@H]5/C=C\CC[C@H](C)C[C@@H](C)[C@H](NC(=O)c5ccc(N(C)C)cc5)C(=O)N4C3)nccc2c1 [Compound 5180, (2R,6S,7R,9S,13aS,14aR,16aS,Z)-6-(4-(dimethylamino)benzamido)-2-((6-methoxyisoquinolin-1-yl)oxy)-7,9-dimethyl-N-((1-methylcyclopropyl)sulfonyl)-5,16-dioxo-1,2,3,5,6,7,8,9,10,11,13a,14,14a,15,16,16a-hexadecahydrocyclopropa[e]pyrrolo[1,2-a][1,4]diazacyclopentadecine-14a-carboxamide] | < 5.46 | < 5.46 |
| COc1ccc2c(O[C@@H]3C[C@H]4C(=O)N[C@]5(C(=O)NS(=O)(=O)C6(C)CC6)C[C@H]5/C=C\CC[C@@H](C)C[C@@H](C)[C@H](NC(=O)c5ccc(N(C)C)cc5)C(=O)N4C3)nccc2c1 [Compound 5181, (2R,6S,7R,9R,13aS,14aR,16aS,Z)-6-(4-(dimethylamino)benzamido)-2-((6-methoxyisoquinolin-1-yl)oxy)-7,9-dimethyl-N-((1-methylcyclopropyl)sulfonyl)-5,16-dioxo-1,2,3,5,6,7,8,9,10,11,13a,14,14a,15,16,16a-hexadecahydrocyclopropa[e]pyrrolo[1,2-a][1,4]diazacyclopentadecine-14a-carboxamide] | < 5.46 | < 5.46 |
| C[C@H]1CC/C=C\[C@@H]2C[C@@]2(C(=O)NS(=O)(=O)C2CC2)NC(=O)[C@@H]2C[C@@H](Oc3nc4ccccc4c4ccccc34)CN2C(=O)[C@@H](NC(=O)OC(C)(C)C)[C@H](C)C1 [Compound 5182, tert-butyl ((2R,6S,7R,9S,13aS,14aR,16aS,Z)-14a-((cyclopropylsulfonyl)carbamoyl)-7,9-dimethyl-5,16-dioxo-2-(phenanthridin-6-yloxy)-1,2,3,5,6,7,8,9,10,11,13a,14,14a,15,16,16a-hexadecahydrocyclopropa[e]pyrrolo[1,2-a][1,4]diazacyclopentadecin-6-yl)carbamate] | < 5.46 | < 5.46 |
